Measurements reported in ChEMBL document CHEMBL1158736, “Cremastrine, a pyrrolizidine alkaloid from Cremastra appendiculata” (J Nat Prod, 2005).

What was measured:
[1] = target: T1, Muscarinic acetylcholine receptor M5 (Homo sapiens, UniProt P08912); test: Displacement of [3H]NMS from human cloned muscarinic M5 receptor expressed in insect Sf9 cells
T1 sequence (P08912 whole entry): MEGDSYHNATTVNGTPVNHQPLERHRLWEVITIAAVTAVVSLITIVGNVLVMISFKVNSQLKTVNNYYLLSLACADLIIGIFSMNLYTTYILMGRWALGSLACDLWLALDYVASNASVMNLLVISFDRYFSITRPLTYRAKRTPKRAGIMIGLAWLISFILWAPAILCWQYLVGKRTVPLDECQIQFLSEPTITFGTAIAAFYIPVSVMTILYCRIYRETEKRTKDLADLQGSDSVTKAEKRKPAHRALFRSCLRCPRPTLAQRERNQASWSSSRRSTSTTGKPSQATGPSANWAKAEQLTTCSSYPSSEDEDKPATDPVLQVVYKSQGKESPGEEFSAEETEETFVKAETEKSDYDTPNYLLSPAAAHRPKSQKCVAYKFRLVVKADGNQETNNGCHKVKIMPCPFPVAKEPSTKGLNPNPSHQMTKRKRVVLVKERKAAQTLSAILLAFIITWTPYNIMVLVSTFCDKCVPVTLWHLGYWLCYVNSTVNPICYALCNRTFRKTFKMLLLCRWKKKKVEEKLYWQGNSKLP

[2] = target: Muscarinic acetylcholine receptor M3 (Homo sapiens, UniProt P20309); test: Displacement of [3H]NMS from human cloned muscarinic M3 receptor expressed in insect Sf9 cells
[3] = target: T2, Muscarinic acetylcholine receptor M4 (Homo sapiens, UniProt P08173); test: Displacement of [3H]NMS from human cloned muscarinic M4 receptor expressed in insect Sf9 cells
T2 sequence (P08173 whole entry): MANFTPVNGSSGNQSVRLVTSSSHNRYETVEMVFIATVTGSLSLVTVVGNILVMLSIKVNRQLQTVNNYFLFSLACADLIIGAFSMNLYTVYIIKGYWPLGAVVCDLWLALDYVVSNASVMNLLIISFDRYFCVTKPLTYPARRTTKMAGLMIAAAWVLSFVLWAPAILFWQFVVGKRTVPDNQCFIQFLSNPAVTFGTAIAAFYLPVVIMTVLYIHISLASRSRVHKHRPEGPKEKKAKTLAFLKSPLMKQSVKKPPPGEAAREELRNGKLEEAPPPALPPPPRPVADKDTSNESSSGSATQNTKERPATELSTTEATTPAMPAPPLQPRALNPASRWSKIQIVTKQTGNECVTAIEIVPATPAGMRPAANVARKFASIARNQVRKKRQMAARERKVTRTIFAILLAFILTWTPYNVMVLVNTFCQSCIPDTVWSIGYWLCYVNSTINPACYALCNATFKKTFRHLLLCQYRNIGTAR

[4] = target: T3, Muscarinic acetylcholine receptor M1 (Homo sapiens, UniProt P11229); test: Displacement of [3H]NMS from human cloned muscarinic M1 receptor expressed in insect Sf9 cells
T3 sequence (P11229 whole entry): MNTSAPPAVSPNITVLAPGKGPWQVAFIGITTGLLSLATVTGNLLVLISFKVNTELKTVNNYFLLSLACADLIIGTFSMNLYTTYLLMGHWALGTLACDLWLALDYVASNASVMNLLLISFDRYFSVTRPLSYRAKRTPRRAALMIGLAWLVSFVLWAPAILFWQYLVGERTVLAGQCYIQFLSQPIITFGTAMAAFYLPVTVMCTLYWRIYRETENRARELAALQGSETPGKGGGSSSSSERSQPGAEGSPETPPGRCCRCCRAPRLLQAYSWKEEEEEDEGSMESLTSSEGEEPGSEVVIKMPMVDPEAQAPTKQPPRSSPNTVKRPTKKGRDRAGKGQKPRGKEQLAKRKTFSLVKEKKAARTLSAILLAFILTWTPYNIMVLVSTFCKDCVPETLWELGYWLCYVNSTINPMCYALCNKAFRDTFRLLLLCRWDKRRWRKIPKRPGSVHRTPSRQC

[5] = target: T4, Muscarinic acetylcholine receptor M2 (Homo sapiens, UniProt P08172); test: Displacement of [3H]NMS from human cloned muscarinic M2 receptor expressed in insect Sf9 cells
T4 sequence (P08172 whole entry): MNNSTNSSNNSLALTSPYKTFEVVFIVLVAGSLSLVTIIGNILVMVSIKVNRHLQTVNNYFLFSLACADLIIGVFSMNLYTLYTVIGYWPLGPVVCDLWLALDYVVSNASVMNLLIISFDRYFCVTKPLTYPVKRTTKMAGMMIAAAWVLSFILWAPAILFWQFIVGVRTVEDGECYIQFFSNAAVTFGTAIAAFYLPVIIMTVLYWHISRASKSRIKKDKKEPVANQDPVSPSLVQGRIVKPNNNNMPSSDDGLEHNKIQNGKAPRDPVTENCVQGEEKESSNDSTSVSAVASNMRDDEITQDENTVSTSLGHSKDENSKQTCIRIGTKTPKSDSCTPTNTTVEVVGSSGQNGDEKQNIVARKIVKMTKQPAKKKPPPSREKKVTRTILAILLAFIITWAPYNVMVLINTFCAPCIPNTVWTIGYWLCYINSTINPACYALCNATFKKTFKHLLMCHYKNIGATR

Chain of Muscarinic acetylcholine receptor M3 (P20309 whole entry): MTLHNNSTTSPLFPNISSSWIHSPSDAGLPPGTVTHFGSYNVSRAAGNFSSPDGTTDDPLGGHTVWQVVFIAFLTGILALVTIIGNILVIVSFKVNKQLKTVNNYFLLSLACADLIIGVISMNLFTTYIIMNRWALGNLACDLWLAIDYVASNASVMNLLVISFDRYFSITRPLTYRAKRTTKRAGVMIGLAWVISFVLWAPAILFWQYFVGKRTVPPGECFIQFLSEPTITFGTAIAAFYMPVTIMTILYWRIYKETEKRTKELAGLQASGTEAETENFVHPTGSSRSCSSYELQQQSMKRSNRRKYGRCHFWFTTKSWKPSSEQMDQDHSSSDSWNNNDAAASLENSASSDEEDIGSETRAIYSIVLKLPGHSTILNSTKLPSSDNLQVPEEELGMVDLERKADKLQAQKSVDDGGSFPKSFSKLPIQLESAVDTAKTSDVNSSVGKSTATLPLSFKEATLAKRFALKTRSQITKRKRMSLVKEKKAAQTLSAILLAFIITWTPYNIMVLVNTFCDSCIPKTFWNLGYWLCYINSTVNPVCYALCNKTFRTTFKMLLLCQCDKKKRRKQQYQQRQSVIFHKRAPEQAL

## CC[C@@H](C)[C@@H](O)C(=O)OC[C@H]1CCN2CCC[C@@H]12 [CREMASTRINE]
[1]
  IC50: 1220 nM
[2]
  IC50: 126 nM
[3]
  IC50: 498 nM
[4]
  IC50: 505 nM
[5]
  IC50: > 5520 nM
